How the values were obtained:
[1] = test system: cortical neurons; test: Staurosporine (STS)-induced neuronal apoptosis; assay type: cell-based, rat; settings: NMDA 200 μM, 5 min, Ro 25-6981 0.5 μM present
Text: In alternative aspects of the invention, we have achieved specific activation of NR2A-containing receptors using two different strategies. First, we examined the effect of selective activation of extrasynaptic NR2A-containing receptor activation on neuronal appopotosis induced by staurosporine (STS), a potent apoptosis inducer (Budd et al., 2000). […] The NMDA-induced neuronal protection was indeed mediated by NR2A-containing receptors as it was prevented by co-application of NVP-AAM077 (p<0.001 compared with STS alone).
Dissociated cultures of cortical neurons were prepared from 18-day Sprague-Dawley rat embryos as described previously (Mielke et al., 2005). To obtain mixed cortical cultures enriched with neurons, uridine (10 μM) and 5-Fluor-2′-deoxyuridine (10 μM) were added to the culture medium at 3 DIV and maintained for 48 h, to inhibit non-neuronal cell proliferation, before the cultures were shifted back to the normal culture medium. Mature neurons (11-14 DIV) were used for experiments. To induce neuronal apoptosis, cortical cultures were stimulated with NMDA (50 μM) and glycine (10 μM) for 20 min, or STS (100 nM) for 1 h in Mg2+-free extracellular solution (ECS) containing (mM): 25 HEPES acid, 140 NaCl, 33 glucose, 5.4 KCl and 1.3 CaCl2, with pH 7.35 and osmolarity 320-330 mOsm. […]
To visualize injured neurons, Hoechst-33342 (10 μg/ml) was added to the culture medium 20 h after treatments and incubated for 45 min at 37 °C. Images were taken with a Leica DMIRE2 fluorescence microscope. Quantitative assessment of neuronal apoptosis was performed 20 h following treatments using a Cell Death Detection ELISAPLUS Kit (Roche Applied Science). Absorbance readings were determined using a spectrophotometric microplate reader. […] Data are expressed as the difference in apoptosis relative to control and are expressed as a percentage.

[2] = test system: cortical neurons; test: NMDA-mediated excitotoxicity: neuronal apoptosis in cortical cultures; assay type: cell-based, rat; settings: 50 μM NMDA plus 10 μM glycine 20 min, assayed 20 h after; APV 50 μM, Ro25-6981 0.5 μM, NVP-AAM077 0.4 μM
Protocol: (§1) Mature neurons (11-14 DIV) were used for experiments.
(§2) To visualize injured neurons, Hoechst-33342 (10 μg/ml) was added to the culture medium 20 h after treatments and incubated for 45 min at 37 °C. Images were taken with a Leica DMIRE2 fluorescence microscope. Quantitative assessment of neuronal apoptosis was performed 20 h following treatments using a Cell Death Detection […] Kit (Roche Applied Science). Absorbance readings were determined using a spectrophotometric microplate reader. Data analyses were carried out according to the manufacturer's instructions. Data are expressed as the difference in apoptosis relative to control and are expressed as a percentage.

[3] = test system: synaptic NMDA receptors; test: mEPSC recording, NMDA receptor-mediated component; assay type: cell-based, rat
[4] = test system: middle cerebral artery occlusion (MCAo); test: MCAo focal ischemic stroke model, post-ischemic treatment; assay type: in vivo, rat
Text: In some clinical settings, it is desirable to implement therapy after the onset of neuronal injury, such as stroke or other ischemic events.
Transient cerebral focal ischemia was produced by middle cerebral artery occlusion (MCAo) as described (Aarts et al., 2002; Bederson et al., 1986; Longa et al., 1989). Briefly, male Sprague-Dawley rats (Charles River Laboratories) weighing ˜300 g were anesthetized and MCAo was achieved by introducing a 3-0 monofilament suture into the MCA via the internal carotid artery. Body temperature was maintained at 37.0±0.5° C., and blood pressure and blood gases were monitored during the experiments. Animals were sacrificed 24 h following MCAo onset. Cerebral infarction was analyzed using brain sections stained with hematoxylin and eosin (H & E) or 2,3,5-triphenyltetrazolium chloride (TTC). 10 min before the animals were sacrificed, two tests, the postural reflex test to examine upper body posture (Bederson et al., 1986) and the forelimb placing test to examine sensorimotor integration in forelimb placing responses to visual, tactile, and proprioceptive stimuli (De Ryck et al., 1989), were performed to grade neurological function on a scale of 0 to 12 (0=normal, 12=worst). In the pretreatment study, a single bolus of drugs (NR2A-specific antagonist NVP-AAM077 (2.4 mg/kg) or NR2B specific antagonist Ro 25-6981 (6 mg/kg) or vehicle (saline)) was infused intravenously 30 min before a 1-h MCAo. For post-treatment experiments, animals were subjected to a 1.5-h MCAo and drug treatments (glycine, 800 mg/kg; NVP-AAM077 and Ro 25-6981 at the same doses as in the pretreatment study) were then given via intraperitoneal injection (i.p.) 3 h after reperfusion (4.5 h after the onset of MCAo).
The activating effect on NR2A-containing receptors was mimicked with the application of the NMDA receptor co-agonist glycine in the presence of an […] NR2B antagonist. Glycine by itself potentiates the function of NMDA receptors that are activated by endogenously released glutamate from presynaptic terminals both in vitro and in vivo (Johnson et al., 1987; Lu et al., 2001; De et al., 2000).

[5] = test system: acute ischaemic stroke in the carotid artery territory; settings: sublingual 1.0-2.0 g/day started within 6 h after onset; cited from earlier work
[6] = test system: cortical neurons; test: Glycine pretreatment before NMDA-induced neuronal apoptosis; assay type: cell-based, rat
Protocol: as §1, §2

[7] = test system: AMPA subtype glutamate receptor; test: mEPSC recording, fast AMPA receptor-mediated component; assay type: cell-based, rat; settings: -60 mV, zero added Mg2+
[8] = test system: NR1C and NR2B receptors over NR1C+NR2A receptors; settings: cited from earlier work
[9] = test system: permanent focal ischemia; settings: in vivo; cited from earlier work

CN[C@H](CC(=O)O)C(=O)O [NMDA, N-methyl-D-aspartate]
effect on STS-induced apoptosis ([1]; STS 100 nM, 1 h): significantly reduced STS-induced apoptosis
neuronal apoptosis on its own ([1]; synaptic receptors blocked (MK-801 + bicuculline)): did not increase neuronal apoptosis on its own

N[C@@H](CCCP(=O)(O)O)C(=O)O [APV]
effect on NMDA-induced neuronal apoptosis/damage [2]: fully blocked
effect on slow NMDA receptor-mediated component of mEPSCs ([3]; -60 mV, zero added Mg2+, APV 50 μM, Ro 25-6981 0.5 μM): fully blocked

NCC(=O)O [glycine, Glycine]
neuroprotection / total infarct volume compared with MCAo alone ([4]; rat, in vivo): remarkable reduction in total infarct volume
clinical effects [5]: favourable clinical effects
effect of pretreatment on NMDA-induced neuronal apoptosis [6]: significantly reduced NMDA-induced neuronal apoptosis

O=C1N=c2cc([N+](=O)[O-])c([N+](=O)[O-])cc2=NC1=O [DNQX, 6,7-dinitroquinoxaline-2,3-dione]
effect on fast AMPA receptor-mediated component of mEPSCs [7]: completely blocked

C[C@]12N[C@H](Cc3ccccc31)c1ccccc12 [MK-801]
effect of co-administration on the glycine effect (infarct volume reduction) ([4]; co-administered with glycine 800 mg/kg 4.5 h after stroke onset): virtually completely abolished
neuroprotection / total infarct volume compared with MCAo alone ([4]; given 3 h after 1.5-h MCAo (4.5 h after stroke onset), MK801 1 mg/Kg, glycine 800 mg/Kg, Ro 25-6981 6 mg/Kg): did not provide any noticeable neuroprotection
blockade of synaptic NMDA receptors (APV-sensitive component of mEPSCs) ([3]; MK-801 10 μM co-applied with bicuculline 50 μM, within 10 min): complete blockade

Cc1ccc(CC2(O)CCN(CCOc3ccc(O)cc3)CC2)cc1 [Ro 63-1908, 1-[2-(4-hydroxy-phenoxy)-ethyl]-4-(4-methyl-benzyl)-piperidin-4-ol]
selectivity for the NR1C and NR2B receptors over NR1C+NR2A receptors [8]: 20,000 fold
neuroprotective effect against cortical damage [9]: dose-related neuroprotective effect
